Assay results: doi:10.1101/2023.05.15.540887, “Comparative analysis of drug-like EP300/CREBBP acetyltransferase inhibitors” (bioRxiv, 2023)
pIC50: −log10 of the molar value. Read-outs that look alike come from different tables or passages of the source.

How the values were obtained:
[1] = system: MCF10A PANK4 KO+PANK4 mutant (D623A) cells; assay: Sulforhodamine B cell growth assay, MCF10A PANK4 KO+PANK4 mutant; assay type: cell-based; conditions: Homo sapiens; MCF-10A KO+PANK4 mutant, 72 h
HL-60(TB) = assay: NCI-60 growth inhibition (sulforhodamine B); assay type: cell-based, human; conditions: HL-60(TB) (Leukemia), negative log of Molar conc., LCONC -8
A549/ATCC = assay: NCI-60 growth inhibition (sulforhodamine B); assay type: cell-based, human; conditions: A549/ATCC (Non-Small Cell Lung Cancer), negative log of Molar conc., LCONC -8
EKVX = assay: NCI-60 growth inhibition (sulforhodamine B); assay type: cell-based, human; conditions: EKVX (Non-Small Cell Lung Cancer), negative log of Molar conc., LCONC -8
HOP-62 = assay: NCI-60 growth inhibition (sulforhodamine B); assay type: cell-based, human
NCI-H23 = assay: NCI-60 growth inhibition (sulforhodamine B); assay type: cell-based, human; conditions: NCI-H23 (Non-Small Cell Lung Cancer), negative log of Molar conc., LCONC -8
NCI-H460 = assay: NCI-60 growth inhibition (sulforhodamine B); assay type: cell-based, human
NCI-H522 = assay: NCI-60 growth inhibition (sulforhodamine B); assay type: cell-based, human; conditions: NCI-H522 (Non-Small Cell Lung Cancer), negative log of Molar conc., LCONC -8
SF-295 = assay: NCI-60 growth inhibition (sulforhodamine B); assay type: cell-based, human; conditions: SF-295 (CNS Cancer), negative log of Molar conc., LCONC -8
SK-MEL-2 = assay: NCI-60 growth inhibition (sulforhodamine B); assay type: cell-based, human; conditions: SK-MEL-2 (Melanoma), negative log of Molar conc., LCONC -8
UACC-257 = assay: NCI-60 growth inhibition (sulforhodamine B); assay type: cell-based, human; conditions: UACC-257 (Melanoma), negative log of Molar conc., LCONC -8
OVCAR-5 = assay: NCI-60 growth inhibition (sulforhodamine B); assay type: cell-based, human; conditions: OVCAR-5 (Ovarian Cancer), negative log of Molar conc., LCONC -8
ACHN = assay: NCI-60 growth inhibition (sulforhodamine B); assay type: cell-based; conditions: Homo sapiens, Renal Cancer, negative log of Molar value
CAKI-1 = assay: NCI-60 growth inhibition (sulforhodamine B); assay type: cell-based; conditions: Homo sapiens, CAKI-1, Renal Cancer, negative log of Molar value, LCONC -8, EXPID 2301NS84
RXF393 = assay: NCI-60 growth inhibition (sulforhodamine B); assay type: cell-based; conditions: Homo sapiens, RXF 393, Renal Cancer, negative log of Molar value, LCONC -8, EXPID 2301NS84
SN12C = assay: NCI-60 growth inhibition (sulforhodamine B); assay type: cell-based; conditions: Homo sapiens, Renal Cancer, negative log of Molar value
DU-145 = assay: NCI-60 growth inhibition (sulforhodamine B); assay type: cell-based; conditions: Homo sapiens, DU-145, Prostate Cancer, negative log of Molar value, LCONC -8, EXPID 2301NS84
MCF7 = assay: NCI-60 growth inhibition (sulforhodamine B); assay type: cell-based; conditions: Homo sapiens, MCF7, Breast Cancer, negative log of Molar value, LCONC -8, EXPID 2301NS84
HS578T = assay: NCI-60 growth inhibition (sulforhodamine B); assay type: cell-based; conditions: Homo sapiens
T-47D = assay: NCI-60 growth inhibition (sulforhodamine B); assay type: cell-based; conditions: Homo sapiens, T47D
M14 [2] = conditions: M14 (Melanoma); negative log of Molar conc.; LCONC -8
M14 [3] = assay: cells; conditions: Homo sapiens
[4] = Homo sapiens, read-out: GI50 NLOGVALUE (converted)
[5] = Homo sapiens, read-out: IC50 NLOGVALUE (converted)
[6] = Homo sapiens, read-out: LC50 NLOGVALUE
[7] = Homo sapiens, read-out: IC50 NLOGVALUE
[8] = Homo sapiens, read-out: GI50 NLOGVALUE
[9] = LCONC -8, EXPID 2301NS84, read-out: GI50 NLOGVALUE (converted)
[10] = read-out: GI50 NLOGVALUE (converted)

SMILES: C[C@H](CN[C@@H](C(=O)Nc1ccc(-c2cnn(C)c2)cn1)c1ccccc1)c1ccc(C#N)cc1 [CPI-1612]
- pIC50 [1]: 6.99
- TGI NLOGVALUE (HL-60(TB)): 4.6
- GI50 (HL-60(TB); [4]): 0.0132 µM
- IC50 (HL-60(TB); [5]): 15.5 µM
- CC50 (HL-60(TB); [6]): > 100 µM
- TGI NLOGVALUE (A549/ATCC): 4
- GI50 (A549/ATCC; [4]): 3.31 µM
- IC50 (A549/ATCC; [5]): 19.1 µM
- TGI NLOGVALUE (EKVX): 4
- GI50 (EKVX; [4]): 1.51 µM
- pIC50 (EKVX; [7]): < 4.00
- TGI NLOGVALUE (HOP-62; HOP-62 (Non-Small Cell Lung Cancer), negative log of Molar conc., LCONC -8): 4
- GI50 (HOP-62; Homo sapiens, HOP-62, read-out: GI50 AVGDATA (converted)): 1.95 µM
- GI50 (HOP-62; Homo sapiens, HOP-62 (Non-Small Cell Lung Cancer), negative log of Molar conc., LCONC -8, read-out: GI50 NLOGVALUE (converted)): 1.91 µM
- pIC50 (HOP-62; Homo sapiens, HOP-62 (Non-Small Cell Lung Cancer), negative log of Molar conc., LCONC -8, read-out: IC50 NLOGVALUE): < 4.00
- CC50 (HOP-62; Homo sapiens, HOP-62 (Non-Small Cell Lung Cancer), negative log of Molar conc., LCONC -8, read-out: LC50 NLOGVALUE): > 100 µM
- GI50 (NCI-H23; [4]): 0.0331 µM
- IC50 (NCI-H23; [5]): 0.851 µM
- CC50 (NCI-H23; [6]): > 100 µM
- TGI NLOGVALUE (NCI-H23): 4
- GI50 (NCI-H460; Homo sapiens, NCI-H460, read-out: GI50 AVGDATA (converted)): 14.5 µM
- GI50 (NCI-H460; Homo sapiens, NCI-H460 (Non-Small Cell Lung Cancer), negative log of Molar conc., LCONC -8, read-out: GI50 NLOGVALUE (converted)): 14.1 µM
- IC50 (NCI-H460; Homo sapiens, NCI-H460 (Non-Small Cell Lung Cancer), negative log of Molar conc., LCONC -8, read-out: IC50 NLOGVALUE (converted)): 20.9 µM
- CC50 (NCI-H460; Homo sapiens, NCI-H460 (Non-Small Cell Lung Cancer), negative log of Molar conc., LCONC -8, read-out: LC50 NLOGVALUE): > 100 µM
- TGI NLOGVALUE (NCI-H460; NCI-H460 (Non-Small Cell Lung Cancer), negative log of Molar conc., LCONC -8): 4
- GI50 (NCI-H522; [4]): 0.115 µM
- pIC50 (NCI-H522; [7]): < 4.00
- TGI NLOGVALUE (NCI-H522): 4
- GI50 (SF-295; [8]): < 0.01 µM
- IC50 (SF-295; [5]): 4.17 µM
- CC50 (SF-295; [6]): > 100 µM
- TGI NLOGVALUE (SF-295): 4
- GI50 (SK-MEL-2; [4]): 0.851 µM
- pIC50 (SK-MEL-2; [7]): < 4.00
- CC50 (SK-MEL-2; [6]): > 100 µM
- TGI NLOGVALUE (SK-MEL-2): 4
- pIC50 (UACC-257; [7]): < 4.00
- CC50 (UACC-257; [6]): > 100 µM
- TGI NLOGVALUE (UACC-257): 4
- GI50 (OVCAR-5; [8]): > 100 µM
- pIC50 (OVCAR-5; [7]): < 4.00
- CC50 (OVCAR-5; [6]): > 100 µM
- TGI NLOGVALUE (OVCAR-5): 4
- GI50 (ACHN; [9]): 0.0129 µM
- IC50 (ACHN; LCONC -8, EXPID 2301NS84, read-out: IC50 NLOGVALUE (converted)): 0.0309 µM
- GI50 (CAKI-1; read-out: GI50 NLOGVALUE): < 0.01 µM
- CC50 (CAKI-1; read-out: LC50 NLOGVALUE): > 100 µM
- GI50 (RXF393; [10]): 55 µM
- pIC50 (RXF393; read-out: IC50 NLOGVALUE): < 4.00
- CC50 (RXF393; read-out: LC50 NLOGVALUE): > 100 µM
- GI50 (SN12C; [9]): 0.224 µM
- pIC50 (SN12C; LCONC -8, EXPID 2301NS84, read-out: IC50 NLOGVALUE): < 4.00
- CC50 (SN12C; LCONC -8, EXPID 2301NS84, read-out: LC50 NLOGVALUE): > 100 µM
- GI50 (DU-145; [10]): 21.4 µM
- pIC50 (DU-145; read-out: IC50 NLOGVALUE): < 4.00
- CC50 (DU-145; read-out: LC50 NLOGVALUE): > 100 µM
- GI50 (MCF7; read-out: GI50 NLOGVALUE): < 0.01 µM
- pIC50 (MCF7; read-out: IC50 NLOGVALUE): > 8.00
- GI50 (HS578T; Hs-578T, read-out: GI50 AVGDATA (converted)): 0.0138 µM
- GI50 (HS578T; HS 578T, Breast Cancer, negative log of Molar value, LCONC -8, EXPID 2301NS84, read-out: GI50 NLOGVALUE (converted)): 0.0141 µM
- pIC50 (HS578T; HS 578T, Breast Cancer, negative log of Molar value, LCONC -8, EXPID 2301NS84, read-out: IC50 NLOGVALUE): < 4.00
- CC50 (HS578T; HS 578T, Breast Cancer, negative log of Molar value, LCONC -8, EXPID 2301NS84, read-out: LC50 NLOGVALUE): > 100 µM
- GI50 (T-47D; T-47D, Breast Cancer, negative log of Molar value, LCONC -8, EXPID 2301NS84, read-out: GI50 NLOGVALUE (converted)): 0.0115 µM
- IC50 (T-47D; T-47D, Breast Cancer, negative log of Molar value, LCONC -8, EXPID 2301NS84, read-out: IC50 NLOGVALUE (converted)): 42.7 µM
- CC50 (T-47D; T-47D, Breast Cancer, negative log of Molar value, LCONC -8, EXPID 2301NS84, read-out: LC50 NLOGVALUE): > 100 µM
- GI50 (T-47D; read-out: GI50 AVGDATA (converted)): 0.0117 µM
- TGI NLOGVALUE (M14 [2]): 4
- GI50 (M14 [3]; M14, read-out: GI50 NLOGVALUE): 0.0214 µM
- pIC50 (M14 [3]; M14, read-out: IC50 NLOGVALUE): 4.35
- CC50 (M14 [3]; M14, read-out: LC50 NLOGVALUE): > 100 µM
